Assay [1] concerns the target T1, A1-adenosine receptor human recombinant (Homo sapiens, UniProt P30542).
T1 construct: expressed in transfected cells
T1 sequence (P30542 1-326): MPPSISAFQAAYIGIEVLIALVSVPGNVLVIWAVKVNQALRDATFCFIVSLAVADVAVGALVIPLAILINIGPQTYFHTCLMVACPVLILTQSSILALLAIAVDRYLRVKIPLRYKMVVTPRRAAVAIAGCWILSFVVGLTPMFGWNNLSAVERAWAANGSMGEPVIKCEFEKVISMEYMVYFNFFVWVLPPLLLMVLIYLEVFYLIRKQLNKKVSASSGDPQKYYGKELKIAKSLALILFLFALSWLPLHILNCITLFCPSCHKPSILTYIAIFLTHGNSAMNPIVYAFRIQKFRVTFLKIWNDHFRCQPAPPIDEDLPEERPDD
Description: Radioligand binding assay 1, human recombinant A1 adenosine receptor. As to conditions: [3H]CCPA. As for the experimental part: (§1) Rat brain preparations were used for A1- and A2A adenosine receptor (AR) and human recombinant cell samples for A1-, A2A- and A3 adenosine receptor radioligand binding studies. Affinity and selectivity was tested in displacement experiments with following radioligands: [^3H]CCPA for A1-adenosine receptors, [^3H]MSX-2 for A2A-receptors and [^3H]PSB-11 for A3-receptors. Results of these experiments are depicted in table 2b (human data) and table 2a (rat data). Radioligand binding test systems are e.g. generally described by Muller et al., Curr. Pharm. Des., 1996, 2, 501 and Weyler et al., ChemMedChem 2006, 1, 891 and references cited therein) These documents are incorporated herein by reference.

For assay [2], the target named is T2, A2A-adenosine receptor human recombinant (Homo sapiens, UniProt P29274).
T2 construct: expressed in transfected cells
T2 sequence (P29274 whole entry): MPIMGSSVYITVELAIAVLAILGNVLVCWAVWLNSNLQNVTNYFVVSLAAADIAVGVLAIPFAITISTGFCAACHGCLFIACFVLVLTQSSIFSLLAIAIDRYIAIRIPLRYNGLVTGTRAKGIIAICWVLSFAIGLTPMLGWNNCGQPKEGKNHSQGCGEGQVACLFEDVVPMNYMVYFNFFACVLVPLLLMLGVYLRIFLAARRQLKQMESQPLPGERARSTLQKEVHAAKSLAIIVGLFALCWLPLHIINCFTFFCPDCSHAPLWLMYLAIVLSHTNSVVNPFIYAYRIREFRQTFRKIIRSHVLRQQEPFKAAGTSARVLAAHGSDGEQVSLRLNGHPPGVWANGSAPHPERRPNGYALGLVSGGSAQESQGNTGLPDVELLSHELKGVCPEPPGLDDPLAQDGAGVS
Description: Radioligand binding assay 1, human recombinant A2A adenosine receptor. To be noted: human recombinant, [3H]MSX-2; read-out: A2A-adenosine receptor human recombinant [3H] MSX-2 Ki. As for the experimental part:
as §1

One may read the Ki as the dissociation constant of the complex between target and ligand, obtained from inhibition or displacement.

Each structure is given as a SMILES string. Some results are limits rather than exact numbers.

Consider `C#CCn1c(=O)c2c(nc(C#Cc3cccc(OC)c3)n2C)n(C)c1=O` [drawing 553], for which the Ki was over 10000 nM in assay [1] and 608 ± 111 nM in assay [2].

Regarding `C#CCn1c(=O)c2c(nc(C#Cc3ccc(OC)c(OC)c3)n2C)n(C)c1=O` [drawing 554], the results for the Ki in assay [1] and in assay [2] were over 3000 nM and 36.4 ± 0.6 nM, respectively.

Take `C#CCn1c(=O)c2c(nc(C#Cc3cccc(C)c3)n2C)n(C)c1=O` [drawing 555]: the Ki is over 10000 nM in assay [1] and 225 ± 52 nM in assay [2].

For `C#CCn1c(=O)c2c(nc(C#Cc3cccc(Cl)c3)n2C)n(C)c1=O` [drawing 556], the inhibitory constant (Ki) was over 10000 nM in assay [1] and 423 ± 28 nM in assay [2].

Consider `C#CCn1c(=O)c2c(nc(C#Cc3cccc(OCCO)c3)n2C)n(C)c1=O` [drawing 557], for which the Ki in assay [1] was over 1000 nM; in assay [2], 226 ± 62 nM.

As to `C#CCn1c(=O)c2c(nc(C#Cc3cccc(OCCCN(C)C)c3)n2C)n(C)c1=O` [drawing 558], the inhibition constant Ki was determined as 1740 ± 546 nM in assay [1] and 11.6 ± 2.1 nM in assay [2].

Take `C#CCn1c(=O)c2c(nc(C#Cc3cccc(OCCOC)c3)n2C)n(C)c1=O` [drawing 559]: the Ki in assay [1] is over 1000 nM; in assay [2], 28.9 ± 1.3 nM.

`C#CCn1c(=O)c2c(nc(C#Cc3cccc(OCCN(C)C)c3)n2C)n(C)c1=O` [drawing 560]: the inhibition constant Ki in assay [1] was over 1000 nM; in assay [2], 90.3 ± 13.7 nM.

Turning to `C#CCn1c(=O)c2c(nc(C#Cc3cccc(OCc4ccoc4)c3)n2C)n(C)c1=O` [drawing 562], the Ki in assay [1] was over 1000 nM; in assay [2], under 10 nM.

As for `C#CCn1c(=O)[nH]c2nc(C#Cc3ccc(OC)c(OC)c3)n(C)c2c1=O` [drawing 563], the values for the inhibition constant Ki in assay [1] and in assay [2] were over 1000 nM and 18.4 ± 3 nM, respectively.

In the case of `C#CCn1c(=O)c2c(nc(C#Cc3cccc(OC)c3)n2C)n(CCCO)c1=O` [drawing 564], the inhibitory constant (Ki) in assay [1] is over 3000 nM; in assay [2] it was 5.5 ± 1.4 nM.

As for `C#CCn1c(=O)c2c(nc(C#Cc3cccc(OC)c3)n2C)n(CC)c1=O` [drawing 565], the Ki in assay [1] was over 3000 nM; in assay [2] it was 64.8 ± 12 nM.

Turning to `C#CCn1c(=O)c2c(nc(C#Cc3cccc(C)c3)n2C)n(CC)c1=O` [drawing 566], the Ki in assay [1] is over 3000 nM; in assay [2], 89.7 ± 16.1 nM.

For `C#CCn1c(=O)c2c(nc(C#Cc3ccc(OC)c(OC)c3)n2C)n(CC)c1=O` [drawing 567], the inhibition constant (Ki) in assay [1] is over 1000 nM; in assay [2], 17.7 ± 0.7 nM.

As to `C#CCn1c(=O)c2c(nc(C#Cc3ccc(OC)c(OC)c3)n2C)n(CCN(C)C)c1=O` [drawing 568], the Ki in assay [1] is over 20000 nM; in assay [2], 51.7 ± 8.7 nM.

`C#CCn1c(=O)c2c(nc(C#Cc3cccc(OC)c3)n2C)n(CC(O)CO)c1=O` (stereo not drawn) [drawing 569]: the Ki in assay [1] is over 3000 nM; in assay [2], 175 ± 44 nM.

In the case of `C#CCn1c(=O)c2c(nc(C#Cc3ccc(OCC)c(OCC)c3)n2C)n(CC)c1=O` [drawing 573], the Ki in assay [1] is over 1000 nM; in assay [2], 83.4 ± 26.5 nM.

Consider `C#CCn1c(=O)c2c(nc(C#Cc3ccc(OC)c(OC)c3)n2C)n(CCOC)c1=O` [drawing 574], for which the inhibitory constant (Ki) in assay [1] was over 1000 nM; in assay [2], 55.3 ± 4.3 nM.

For `C#CCn1c(=O)c2c(nc(C#Cc3ccc(OC)c(OC)c3)n2C)n(CCO)c1=O` [drawing 575], the inhibition constant Ki in assay [1] is over 1000 nM; in assay [2] it was 59.8 ± 35.7 nM.

With `C#CCn1c(=O)c2c(nc(C#Cc3ccc(OC)c(OC)c3)n2C)n(CC#N)c1=O` [drawing 576], the Ki in assay [1] was over 1000 nM; in assay [2], 32.2 ± 20.5 nM.

As to `C#CCn1c(=O)c2c(nc(C#Cc3ccc(OC)c(OC)c3)n2C)n(CCC#N)c1=O` [drawing 577], the Ki in assay [1] was over 1000 nM; in assay [2], 84.3 ± 31 nM.

`C#CCn1c(=O)c2c(nc(C#Cc3ccc(OC)c(OC)c3)n2C)n(CC(C)O)c1=O` (stereo not drawn) [drawing 578]: the Ki in assay [1] was over 1000 nM; in assay [2], 14 ± 4.1 nM.

Turning to `C#CCn1c(=O)c2c(nc(C#Cc3ccc(OC)c(OC)c3)n2C)n(Cc2ccco2)c1=O` [drawing 579], the Ki was over 1000 nM in assay [1] and 13.9 ± 0.8 nM in assay [2].

Turning to `C#CCn1c(=O)c2c(nc(C#Cc3ccc(OC)c(OC)c3)n2C)n(CCCOC)c1=O` [drawing 581], the Ki in assay [1] is over 1000 nM; in assay [2], 123 ± 62 nM.

With `C#CCn1c(=O)c2c(nc(C#Cc3ccc(OC)c(OC)c3)n2C)n(CCCC#N)c1=O` [drawing 582], the Ki in assay [1] is over 1000 nM; in assay [2], 58 ± 13.3 nM.

Consider `C#CCn1c(=O)c2c(nc(C#Cc3ccc(OC)c(OC)c3)n2C)n(Cc2ccoc2)c1=O` [drawing 583], for which the figures for the Ki in assay [1] and in assay [2] were over 1000 nM and 8.4 ± 6.7 nM, respectively.

As to `C#CCn1c(=O)c2c(nc(C#Cc3ccc(OC)c(OC)c3)n2C)n(CCC)c1=O` [drawing 584], the Ki was over 1000 nM in assay [1] and 36.6 ± 8.7 nM in assay [2].

For the compound `C#CCn1c(=O)c2c(nc(C#Cc3ccc(OC)c(OC)c3)n2C)n(CC(C)C)c1=O` [drawing 585], the inhibition constant Ki is at least 1000 nM in assay [1] and 200 ± 99 nM in assay [2].

In the case of `C#CCn1c(=O)c2c(nc(C#Cc3ccc(OC)c(OC)c3)n2C)n(C(C)C)c1=O` [drawing 586], the inhibition constant (Ki) in assay [1] is over 1000 nM; in assay [2] it was 127 ± 19 nM.

As for `C#CCn1c(=O)c2c(nc(C#Cc3ccc(OC)c(OC)c3)n2C)n(CCF)c1=O` [drawing 587], the Ki was over 1000 nM in assay [1] and 30.8 ± 4.9 nM in assay [2].

Take `C#CCn1c(=O)c2c(nc(C#Cc3ccc(F)c(OC)c3)n2C)n(CC)c1=O` [drawing 588]: the inhibition constant (Ki) in assay [1] was over 1000 nM; in assay [2] it was 100 ± 28 nM.

On to `C#CCn1c(=O)c2c(nc(C#Cc3ccc(OC)c(OC)c3)n2C)n(Cc2cccs2)c1=O` [drawing 589], for which the figures for the inhibition constant (Ki) in assay [1] and in assay [2] were over 1000 nM and 416 ± 44 nM, respectively.

Take `C#CCn1c(=O)c2c(nc(C#Cc3ccc(OC)c(OC)c3)n2C)n(CC2CC2)c1=O` [drawing 590]: the inhibition constant (Ki) in assay [1] is over 1000 nM; in assay [2] it was 56.3 ± 26.4 nM.

On to `C#CCn1c(=O)c2c(nc(C#Cc3ccc(OC)c(OC)c3)n2C)n(Cc2cnc[nH]2)c1=O` [drawing 593], for which the Ki in assay [1] is over 1000 nM; in assay [2], 103 nM.

Consider `C#CCn1c(=O)c2c(nc(C#Cc3ccc(OC)c(OC)c3)n2C)n(CC(O)CO)c1=O` (stereo not drawn) [drawing 595], for which the inhibitory constant (Ki) in assay [1] is over 1000 nM; in assay [2] it was 62.7 ± 10.7 nM.

Turning to `C#CCn1c(=O)c2c(nc(C#Cc3ccc(Cl)c(Cl)c3)n2C)n(CC)c1=O` [drawing 597], the inhibition constant Ki in assay [1] is over 1000 nM; in assay [2] it was 738 ± 146 nM.

As to `C#CCn1c(=O)c2c(nc(C#Cc3ccc(OC)c(OC)c3)n2C)n(CC(=O)OC)c1=O` [drawing 598], the figures for the Ki in assay [1] and in assay [2] were over 1000 nM and 38.2 ± 8.5 nM, respectively.

In the case of `C#CCn1c(=O)c2c(nc(C#Cc3ccc(OC)c(OC)c3)n2C)n(C)c1=O` [drawing 601], in assay [2], the inhibition constant (Ki) was 89.7 ± 16.1 nM.

For the origin of these results see US20080221134A1, “8-ALKYNYLXANTHINES AND DERIVATIVES” (priority 2006, published 2008).
